Reference: US20220062218A1, “COMPOSITIONS AND METHODS FOR TREATING DIABETES” (ENZYCHEM LIFESCIENCES, priority 2019, published 2022)
Entries after “also recorded” stand apart in the source; their conditions may differ.

How the values were obtained:
Type in all cases: cell-based, rat
INS-1 cells [1] = assay: STZ-induced cell apoptosis in INS-1 cells, flow cytometry with annexin-V and 7-AAD; details: STZ-treated cells
Method: The effect of PLAG on STZ-induced cell apoptosis was analyzed using flow cytometry using annexin-V and 7-AAD dye (FIGS. 2A and 2B). Cells were collected by trypsinization and washed with PBS. For cell apoptosis analyses, INS-1 cells were incubated with annexin V (BD Biosciences, Franklin Lakes, N.J., USA) for 10 min at room temperature, and stained with 7-AAD (BD Biosciences). Analysis was performed using a BD FACSVerse flow cytometer (BD Biosciences). The annexin-V and 7-AAD dyes are dyes that label apoptosis, one kind of cell death.
(§1) After treatment with PLAG and PLH(1-palmitoyl-2-linoleoyl-3-hydroxyl-rac-glycerol), apoptosis, intracellular ROS generation and glucose uptake were analyzed by flow cytometry (FIG. 7-B to 7-E). In addition, expression of GLUT2 in membrane fractions was analyzed by Western blotting (FIG.7-F). Data are presented as mean ±SD. ***P<0.001 vs. control, #P<0.05, ##P<0.005 vs. STZ. N.S.: No significance.
(§2) INS-1 rat insulinoma pancreas beta cells were cultured in RPMI-1640 medium (Welgene, Gyeongsangbuk-do, Republic of Korea) containing 10% fetal bovine serum (Tissue Culture Biologicals, Long Beach, Calif., USA), 50 μM β-mercaptoethanol, 100 units/mL penicillin, and 100 μg/mL streptomycin (Antibiotic-Antimycotic Solution, Welgene). The cells were grown in a humidified atmosphere with 5% CO2 at 37° C. Chemicals and reagents
(§3) Cells were collected by trypsinization and washed with ice-cold PBS. For cell apoptosis analyses, INS-1 cells were incubated with annexin V (BD Biosciences, Franklin Lakes, N.J., USA) for 10 min at room temperature, and stained with 7-AAD (BD Biosciences). For intracellular reactive oxygen species (ROS) analyses, cells were incubated with 2 μM of DCFH-DA (2′,7′-dichlorodihydrofluorescein diacetate, Invitrogen, Carlsbad, Calif., USA) for 30 min at 37° C. The analysis was performed using a BD FACS Verse flow cytometer (BD Biosciences).

GLUT2 = assay: Plasma membrane GLUT2 expression in high glucose-treated INS-1 cells, western blotting of membrane fractions; details: pre-treated with 100 pg/mL of PLAG for 1 h, then 30 mM HG for indicated times
Method: To investigate the effect of PLAG on GLUT2 plasma membrane localization, membrane proteins were fractionated and analyzed by western blotting. INS-1 cells were pre-treated with 100 pg/mL of PLAG for lh, and then treated with 30 mM of HG for indicating times.
For membrane protein fractionation, we performed using the MemPER™ Plus Kit (Thermo Scientific, Waltham, Mass., USA) following the manufacturer's instructions. Proteins were separated on 12% sodium dodecyl sulfate-polyacrylamide gels and transferred to polyvinylidene difluoride membranes (EMD Millipore, Darmstadt, Germany) The membranes were blocked and incubated with primary antibodies to GLUT2 (bs-0351r, Bioss, Woburn, Mass., USA) and N+-K+ ATPase (#3010S, Cell Signaling Technology, Danvers, Mass., USA). After three washes in PBST, membranes were incubated with HRP-conjugated secondary antibodies (Enzo Life Sciences, Farmingdale, N.Y., USA) for 1 h at room temperature. Protein bands were detected using ECL reagent (Thermo Scientific) and then visualized on films.

INS-1 cells [2] = assay: High glucose (HG)-induced intracellular ROS generation in INS-1 cells, flow cytometry with DCFH-DA; details: pre-treated with 50 or 100 μg/mL of PLAG for 1 h, then 30 mM HG for 48 h
Method: Intracellular ROS generation also analyzed by flow cytometry using DCFH-DA dye. ROS generation was determined by analyzing changes in fluorescence intensity. INS-1 cells were pre-treated with 50 or 100 μg/mL of PLAG for 1 h, and then treated with 30 mM of HG for 48h. […] PLAG promotes GLUT2 endocytosis in HG-treated INS-1 cells (FIG. 10)
as §2, §3

[3] = system: Glucose Transporter 2 (GLUT2); assay: GLUT2 plasma membrane expression in STZ-treated cells (western blotting of membrane fractions, immunofluorescence)
Method: To investigate the effect of PLAG on GLUT2 plasma membrane localization, GLUT2 expression and Racl expression in membrane fractions were examined in the same manner as the Western protein blotting (FIGS. 3A to 3B).
In addition, the localization of GLUT2 was observed by immunofluorescence assay. Cells were grown on glass coverslips in 24-well plates and treated with STZ and PLAG. After washing with ice-cold PBS, the cells were fixed with 4% formaldehyde. Permeabilization was not performed to identify only proteins expressed in the cell membrane. The cells were incubated with anti-GLUT2 antibodies (dilution 1:500) and then stained with an Alexa Fluor 488-conjugated secondary antibody (Enzo Life Sciences, dilution 1:1000) and DAPI (Invitrogen). Stained cells were observed under a Zeiss LSM800 confocal microscope (Carl Zeiss, Jena, Germany) (FIG. 3-C).
as §1

RAC1 = RAC1 expression in membrane fractions of STZ-treated cells by western blotting; details: time course
Method: In addition, to perform a special protein detection test (Western Blotting), cells were lysed by RIPA buffer (LPS Solution, Daejeon, Korea) supplemented with protease and phosphatase inhibitors (Thermo Scientific, Waltham, Mass., USA). Proteins were separated on 12% sodium dodecyl sulfate-polyacrylamide gels and transferred to polyvinylidene difluoride membranes (EMD Millipore, Darmstadt, Germany). The membranes were blocked with 5% BSA for 1 h and incubated with primary antibodies to GLUT2 (bs-0351r, Bioss, Woburn, Mass., USA), RAC1 (03589, EMD Millipore), BAX (B51030, Bioworld Tech, St. Louis Park, Minn., USA), BCL-2 (B51031, Bioworld), Cytochrome c (#4272, Cell Signaling Technology, Danvers, Mass., USA), Caspase-3 (#9662, Cell Signaling Technology), and Na+-K+ ATPase (#3010S, Cell Signaling Technology). After three washes in PBST, membranes were incubated with HRP-conjugated secondary antibodies (Enzo Life Sciences, dilution 1:5,000) for 1 h at room temperature. Protein bands were detected using ECL reagent (Thermo Scientific) and then visualized on films. Expression of apoptosis-related proteins like Bcl-2, Bax, cytochrome c, caspase-3 was analyzed by western blotting, Bax/Bcl-2 ratio is represented by a bar graph (FIG. 2-C). Data are presented as mean ±SD (***P<0.001 vs. control, #P<0.05, ##P<0.005 vs. STZ). […]

## CCCCC/C=C\C/C=C\CCCCCCCC(=O)OC(COC(C)=O)COC(=O)CCCCCCCCCCCCCCC (racemic) [PLAG, 1-palmitoyl-2-linoleoyl-3-acetyl-rac-glycerol]
INS-1 cells [1]; 10 μg/mL of PLAG
  apoptosis: ~50%
INS-1 cells [1]; 100 μg/mL PLAG
  apoptosis: ~30%
INS-1 cells [1]; Example 8
  decrease of cell apoptosis, PLAG vs PLH: more effective than PLH
GLUT2
  GLUT2 expression in plasma membrane (time course): gradually decreased until 15 min, then recovered and returned to control levels at 60 min; also recorded: gradually decreased until 15min and then recovered and returned to control levels at 60 min
INS-1 cells [2]
  HG-induced intracellular ROS generation: dose-dependently decreased
[3]; Example 8, membrane fractions by western blotting
  GLUT2 endocytosis / internalization, PLAG vs PLH: endocytosis of GLUT2 was promoted
[3]; STZ-treated cells, non-permeabilized, up to 60 min
  GLUT2 internalization (immunofluorescence): accelerated GLUT2 internalization was observed
[3]; STZ-treated cells, western blotting of membrane fractions, up to 60 min
  membrane-expressed GLUT2 (time course): gradually decreased until 10 min, then recovered and returned to control levels at 60 min
RAC1
  expression of RAC1 in membrane fractions: attenuated after a slight increase in 15 min
